From article PMC3688767, “Lipoprotein FtsB in Streptococcus pyogenes Binds Ferrichrome in Two Steps with Residues Tyr137 and Trp204 as Critical Ligands” (PLoS ONE, 2013)
“And” between values parts separate entries of the source, which are not always exact repeats. Equal values may be shown once. Square brackets hold non-standard residues; d marks the D form. Peptide text beside a SMILES is read from it. Orn(N5-OH,N5-Ac) = CC(=O)N(O)CCC[C@H](N)C(=O)O

Key:
[1] = target: T1, WT FtsB (Streptococcus pyogenes, UniProt Q9A198); assay: Stopped-flow fluorescence binding kinetics; conditions: WT FtsB 10 µM mixed with Fch 1∶1, 25°C, pH 7.2, second-order exponential fit; listed as Fch
Method: (§1) Binding kinetics experiments were carried out using a stopped-ﬂow ﬂuorescence spectrometer (Applied Photophysics, SX200) at 25°C. The excitation wavelength was 280 nm and the ﬂuorescence emission was measured using a high-pass filter with a 320 nm cutoff. Binding reaction was initiated by mixing 10 µM FtsB in 20 mM Tris-HCl (pH 7.2) with Fch in a 1∶1 ratio. Kinetics experiments were performed 5 times, and data were analyzed with a second-order or first-order exponential function offered by Origin 7.5 software.

[2] = target: T2, FtsB mutant Y137A (Streptococcus pyogenes, UniProt Q9A198, Y137A); assay: Stopped-flow fluorescence binding kinetics; conditions: Y137A 10 µM mixed with Fch 1∶1, 25°C, pH 7.2, first-order exponential fit; listed as Fch
T2 sequence (Q9A198 21-310 Y137A): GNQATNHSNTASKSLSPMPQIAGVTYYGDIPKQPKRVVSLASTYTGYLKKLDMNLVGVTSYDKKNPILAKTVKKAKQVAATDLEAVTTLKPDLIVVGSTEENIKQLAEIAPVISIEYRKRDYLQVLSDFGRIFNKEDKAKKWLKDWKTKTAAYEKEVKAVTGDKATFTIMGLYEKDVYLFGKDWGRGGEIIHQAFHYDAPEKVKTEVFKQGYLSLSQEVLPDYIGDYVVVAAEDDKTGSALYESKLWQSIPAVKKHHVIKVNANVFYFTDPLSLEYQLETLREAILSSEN
Method: as §1

[3] = target: T1, WT FtsB; assay: Fluorescence quenching titration of ferrichrome binding, Hill plot
Method: (§2) The interaction between FtsB and Fch was investigated in a fluorescence spectroﬂuorimeter (Hitachi F7000), in which the excitation wavelength was 280 nm (slit width of 2.5 nm) and the emission wavelength was between 290 and 500 nm (slit width of 10 nm). Aliquots of Fch (1 mM stock solution) were gradually added to 1 mL FtsB solution (1.5 µM, in 20 mM Tris–HCl, pH 7.2). Fluorescence spectra were collected after each titration until the spectra were stable. The data were analyzed with Hill plot in Origin 7.5 to acquire the binding capability and dissociation constant (K d). pH dependent Fch binding with FtsB was also examined in the same buffer with pH 3.2–9.2.

[4] = target: T3, FtsB mutant Y287A (Streptococcus pyogenes, UniProt Q9A198, Y287A); assay: as above; conditions: 20 mM Tris-HCl, pH 7.2, read-out: Dissociation constant K d
T3 sequence (Q9A198 21-310 Y287A): T2 sequence (Q9A198 21-310 Y137A)
Method: (§3) E120A, Y137A, W204A and Y287A mutants were constructed by QuikChange mutagenesis kit (Stratagene) with the wild-type ftsb plasmid as a template, using primers summarized in Table 1. To further study the collective contribution of Glu120, Tyr137, Trp204 and Tyr287 to the Fch binding of FtsB, a tetra-point mutation E120A/Y137A/W204A/Y287A was produced by mutating these four amino acids to alanine simultaneously. The PCR reactions were performed as follows: denaturation at 95°C for 30 s, followed by 16 cycles with denaturation at 95°C for 30 s, annealing at 55°C for 1 min, and extension at 68°C for 6 min [14]. The mutant plasmids were transformed into E. coli XL1-blue for sequencing (Invitrogen). The mutant plasmid with correct sequence was transformed into E. coli BL21 (DE3) star competent cells for subsequent expression. Expression and purification of the FtsB mutants were carried out by following the same protocol as for the wild-type protein.
as §2

[5] = target: T4, FtsB Tetra mutant E120A/Y137A/W204A/Y287A (Streptococcus pyogenes, UniProt Q9A198, E120A/W204A/Y137A/Y287A); assay: as above; conditions: 20 mM Tris-HCl, pH 7.2, may be no-specific interaction, read-out: Dissociation constant K d
T4 sequence (Q9A198 21-310 E120A/Y137A/W204A/Y287A): T2 sequence (Q9A198 21-310 Y137A)
Method: as §3, §2

[6] = target: T5, FtsB mutant E120A (Streptococcus pyogenes, UniProt Q9A198, E120A); assay: as above; conditions: 20 mM Tris-HCl, pH 7.2, read-out: Dissociation constant K d
T5 sequence (Q9A198 21-310 E120A): T2 sequence (Q9A198 21-310 Y137A)
Method: as §3, §2

[7] = target: T2, FtsB mutant Y137A; assay: as above
Method: as §3, §2

[8] = target: T6, FtsB mutant W204A (Streptococcus pyogenes, UniProt Q9A198, W204A); assay: as above
T6 sequence (Q9A198 21-310 W204A): T2 sequence (Q9A198 21-310 Y137A)
Method: as §3, §2

**Q.** What does the source list for CC(=O)N([O-])CCC[C@@H]1NC(=O)CNC(=O)CNC(=O)CNC(=O)[C@H](CCCN([O-])C(C)=O)NC(=O)[C@H](CCCN([O-])C(C)=O)NC1=O.[Fe+3] [ferrichrome, Ferrichrome] (cyclo(GGG[Orn(N5-OH,N5-Ac)][Orn(N5-OH,N5-Ac)][Orn(N5-OH,N5-Ac)]))?
**A.** fast rate constant k1 [1]: 180.2 ± 5.4 s⁻¹ and 180 s⁻¹; slow rate constant k2 [1]: 18.7 ± 1.3 s⁻¹; rate constant k [2]: 191.6 ± 7.6 s⁻¹ and 191 s⁻¹; Kd ([3]; WT FtsB 1.5 µM, 20 mM Tris-HCl, pH 7.2, read-out: Dissociation constant K d): 400 ± 20 nM; pH of maximal binding ([3]; pH dependence examined at pH 3.2–9.2): 7.2; Kd [4]: 520 ± 20 nM; Kd [5]: 43900 ± 2500 nM; Kd [6]: 520 ± 30 nM; folds higher K d in comparison with WT ([7]; Y137A mutant vs WT FtsB): 10–20 folds; Kd ([7]; Y137A mutant, 20 mM Tris-HCl, pH 7.2, read-out: Dissociation constant K d): 3700 ± 100 nM; folds higher K d in comparison with WT ([8]; W204A mutant vs WT FtsB): 10–20 folds; Kd ([8]; W204A mutant, 20 mM Tris-HCl, pH 7.2, read-out: Dissociation constant K d): 7050 ± 80 nM
